The values below come from BindingDB's records for doi:10.1073/pnas.2111172118 (Baylor College of Medicine, 2021).

The target in the test is Replicase polyprotein 1ab (Severe acute respiratory syndrome coronavirus 2, UniProt P0DTD1). In words: Enzyme Inhibition Assay and Ki Values Determination.

From the text: Initial hydrolysis rates of fluorescent peptide were plotted as a function of compound concentrations and Ki values were obtained by fitting the data into the Morrison equation (42) with SE from triplicates.

One may read the Ki as the dissociation constant of the complex between target and ligand, obtained from inhibition or displacement. In the case of `COc1cc(-c2cccc3[nH]ncc23)cc(CO)c1OCC(=O)N1CCC(Oc2cccc(C(=O)N(C)C)c2)C1` (stereo unspecified) [CDD-1714], the affinity, expressed as Ki, was 24 nM.
